In PubChem BioAssay (NCI) one finds TGI data, which are given here for seven compounds.

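Assay format: 96-well plates, 48-hour exposure. TGI denotes the concentration required for complete inhibition of growth.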

Test systems include BT-549 breast; TK-10 renal; HCC-2998 colon; UACC-62 melanoma; SW-620 colon; SNB-75 CNS; OVCAR-8 ovarian; MCF7 breast; M14 melanoma; NCI-H460 lung; SR leukemia; A549 NSCLC; DU-145 prostate; T-47D breast; HCT-15 colon; SNB-19 CNS; SK-OV-3 ovarian.
Assay in all cases: inhibition of tumour cell growth, NCI panel, 48 h

On to `N#CCCN(CCC#N)c1ccc(C(N=Nc2ccc(Cl)cc2)=Nc2ccccc2)cc1`, for which the TGI was 16.6 µM with BT-549 breast; 29.1 µM in the assay with TK-10 renal; 20.6 µM in the assay with HCC-2998 colon; 21.8 µM in the assay on UACC-62 melanoma; 39.2 µM in the assay on SW-620 colon; 31.8 µM with SNB-75 CNS. Besides, the TGI with OVCAR-8 ovarian was 28.7 µM; in the assay with MCF7 breast it was 28.2 µM; with M14 melanoma it was 26.9 µM; with NCI-H460 lung it was 22.5 µM; in the assay with SR leukemia, over 100 µM; in the assay on A549 NSCLC, 29.1 µM. Also, the TGI in the assay on DU-145 prostate came to 26.9 µM; in the assay with T-47D breast, 27.2 µM; in the assay on HCT-15 colon it was 21.2 µM; with SNB-19 CNS, 25 µM; with SK-OV-3 ovarian it was 27.1 µM.

`Cc1cccc(NC(=O)O/N=C(\Cl)C(C)C)c1`: the TGI in the assay on BT-549 breast stood at 12.2 µM; in the assay on TK-10 renal it was 27.3 µM; with HCC-2998 colon, 33.8 µM; with UACC-62 melanoma, 29.6 µM; in the assay on SW-620 colon it was 3.6 µM; in the assay with SNB-75 CNS it was 33.1 µM. In addition, the TGI was determined as 34.2 µM with OVCAR-8 ovarian; 28 µM with MCF7 breast; 16.4 µM in the assay on M14 melanoma; 33.2 µM in the assay with NCI-H460 lung; 4.4 µM in the assay on SR leukemia; 40.9 µM in the assay with A549 NSCLC. Besides, the TGI with DU-145 prostate turned out to be 33 µM; in the assay with T-47D breast, 15.6 µM; in the assay with HCT-15 colon, 4.98 µM; in the assay with SNB-19 CNS, 38.9 µM; in the assay with SK-OV-3 ovarian, 31.7 µM.

On to `CCc1c2cc(OC)c(OC)cc2cc2c3cc(OC)c(OC)cc3cc[n+]12` (tested in a mixture with another compound), for which the TGI in the assay on BT-549 breast was 17.4 µM; in the assay on TK-10 renal, over 100 µM; in the assay on HCC-2998 colon, 52 µM; in the assay on UACC-62 melanoma, 73.8 µM; with SW-620 colon, 75.8 µM; with SNB-75 CNS it was 38.4 µM. In addition, the TGI with OVCAR-8 ovarian was over 72.6 µM; in the assay with MCF7 breast, over 91.6 µM; in the assay with M14 melanoma, over 86.6 µM; with NCI-H460 lung it was over 76 µM; with SR leukemia it was over 57.9 µM; in the assay on A549 NSCLC, over 96.6 µM. Moreover, the TGI with DU-145 prostate was over 54.8 µM; with T-47D breast it was over 67 µM; with HCT-15 colon, over 61.7 µM; in the assay with SNB-19 CNS, 82.1 µM; in the assay with SK-OV-3 ovarian, over 97.2 µM.

For the compound `O=C1c2c(O)cc(O)cc2C(C2OC(CO)C(O)C(O)C2O)c2cc(CO)cc(O)c21` (centres undefined), the TGI in the assay on BT-549 breast was over 100 µM; in the assay with TK-10 renal it was over 100 µM; in the assay on HCC-2998 colon, over 100 µM; in the assay on UACC-62 melanoma, over 100 µM; in the assay on SW-620 colon, over 100 µM; in the assay with SNB-75 CNS, 54.9 µM. Further, the TGI in the assay on OVCAR-8 ovarian, in the assay with MCF7 breast, with M14 melanoma, with NCI-H460 lung, in the assay on SR leukemia and in the assay with A549 NSCLC was over 100 µM in each case. Also, the TGI in the assay on DU-145 prostate, in the assay on T-47D breast, in the assay on HCT-15 colon, in the assay on SNB-19 CNS and in the assay with SK-OV-3 ovarian was over 100 µM throughout.

As for `Cc1c(O)c(OC2OC(CO)C(O)C(O)C2O)cc2c1CC[C@@H]1C2(C)C(=O)C[C@]2(C)[C@@H]([C@@](C)(O)C3CCC(C)(C)O3)[C@H](O)C[C@@]12C` (some centres undefined), the TGI in the assay with BT-549 breast, in the assay on TK-10 renal, with HCC-2998 colon, with UACC-62 melanoma, in the assay on SW-620 colon and in the assay on SNB-75 CNS was over 100 µM in each case. Moreover, the TGI in the assay with OVCAR-8 ovarian, in the assay on MCF7 breast, in the assay on M14 melanoma, in the assay on NCI-H460 lung, in the assay on SR leukemia and with A549 NSCLC was over 100 µM each time. The TGI with DU-145 prostate, in the assay on T-47D breast, with HCT-15 colon, in the assay with SNB-19 CNS and with SK-OV-3 ovarian was over 100 µM each time.

As to `c1ccc2c(c1)nc1n2CSCC1`, the TGI in the assay with BT-549 breast, with TK-10 renal, in the assay with HCC-2998 colon, in the assay on UACC-62 melanoma, with SW-620 colon and with SNB-75 CNS was over 100 µM in each case. The TGI in the assay with OVCAR-8 ovarian, in the assay with MCF7 breast, in the assay with M14 melanoma, with NCI-H460 lung, with SR leukemia and in the assay with A549 NSCLC was over 100 µM each time. For the same compound, the TGI in the assay with DU-145 prostate, in the assay with T-47D breast, in the assay with HCT-15 colon, with SNB-19 CNS and in the assay with SK-OV-3 ovarian was over 100 µM throughout.

With `COC(=O)CCC1=NCC(C)(C)O1`, the TGI in the assay on BT-549 breast, in the assay with TK-10 renal, in the assay on HCC-2998 colon, in the assay with UACC-62 melanoma, in the assay on SW-620 colon and in the assay with SNB-75 CNS was over 10 µM in each case. The TGI in the assay on OVCAR-8 ovarian, with MCF7 breast, with M14 melanoma, in the assay on NCI-H460 lung, with SR leukemia and with A549 NSCLC was over 10 µM in each case. In addition, the TGI in the assay with DU-145 prostate, in the assay with T-47D breast, in the assay on HCT-15 colon, in the assay on SNB-19 CNS and in the assay on SK-OV-3 ovarian was over 10 µM in each case.
